Data set [1] can be described thus: Solid state stability of crystal forms (XRD and HPLC). It is filed as physicochemical. As to the method:
Samples of the crystal forms B, H, and L were placed under the conditions of 25 °C/60% RH and 40 °C/75% RH for 17 days, and then the physicochemical stability of the samples was tested using XRD and HPLC. Table 24: Summary of solid state stability evaluation of crystal forms

Data set [2] is described as follows: Suspension stirring competition among anhydrous crystal forms (XRD). In kind it is physicochemical. The note with it: different solvents and temperatures (room temperature/50 °C). As to the method:
The interconversion relationships among the various anhydrous crystal forms were investigated using a suspension stirring competition method in different solvent systems at different temperatures. 1) Equal masses (3-4 mg) of the various anhydrous crystal forms (crystal forms A/B/C/G/H/L/M) were separately weighed and added to HPLC vials. To each vial, 1.0 mL of the corresponding solvent that had been pre-saturated with the crystal form G at the corresponding temperature was added. The resulting suspensions were magnetically stirred (1000 rpm) at room temperature or 50 °C. Samples were taken at 10 min, 3 d, and 7 d, and then centrifuged to collect the solids, which were then subjected to XRD analysis. Table 25: Summary of results of suspension stirring competition test among various anhydrous crystal forms
2) Equal masses (about 5 mg) of the various anhydrous crystal forms (crystal forms B/H/L) were separately weighed and added to HPLC vials. To each vial, 1.0 mL of a solvent that had been pre-saturated with the crystal form G at the corresponding temperature was added. The resulting suspensions were magnetically stirred (1000 rpm) at room temperature or 50 °C. Samples were taken at 10 min, 6 h, 1 d, 4 d, and 7 d, and then centrifuged to collect the solids, which were then subjected to XRD analysis. […]

A short description of data set [3]: Heating experiment via DSC followed by XRD. The conditions noted are these: Heating temperature 250 °C. In kind it is physicochemical. The text has this: The heated samples were then collected and subjected to XRD analysis. Table 27: Summary of heating test results for various crystal forms
On the technique in general: DSC measures the heat that a sample takes up or gives off during a temperature scan.

Data set [4] in a line: Long-term stability study (XRD and HPLC). It is filed as physicochemical. The conditions noted are these: 40±2 °C/75%±5% RH. The protocol:
A sample of the crystal form L was placed under the conditions of 40±2 °C/75%±5% RH, and the physicochemical stability of the sample was tested using XRD and HPLC.

For data set [5], the target named is T1, MAT2A enzyme (Homo sapiens, UniProt P31153).
T1 construct: purchased BPS 71401
Briefly: MAT2A enzymatic assay (Biomol Green, OD620). It is filed as biochemical. As to the method: • a) First, a 5× MAT2A assay buffer (250 mM Tris-HCl, pH 8.0; 250 mM KCl; 75 mM MgCl2; 0.025% BSA; 0.05% Brij35; 1.5 mM EDTA) was prepared and partially diluted to 1× for later use. • b) Preparation and addition of MAT2A enzyme (BPS, 71401): The MAT2A enzyme was diluted to 3.674 ng/µL (1.67×, final concentration: 2.20 ng/µL) with the 1× MAT2A assay buffer. Using a BioTek (MultiFlo FX) automated dispenser, the 1.67× MAT2A enzyme solution was added to the compound test wells and negative control wells of a plate at 15 µL/well, and meanwhile, the 1× MAT2A assay buffer was added to the blank control wells at 15 µL/well. • c) Preparation and addition of compounds: The test compound was diluted from a 10 mM stock solution to 100 µM with DMSO, and the positive control drug AGI-24512 was diluted under the same conditions. Using a Tecan compound dispenser (D300e), the dilutions were automatically dispensed into each well according to a preset concentration gradient. The dispensed volume was minimal and considered negligible. The concentration gradient started at 1 µM (1/2 log dilution), and a total of 8 gradient points were set. The plate was centrifuged at 2500 rpm for 30 s and incubated at 25 °C for 30 min. • d) Preparation of ATP: 10 mM ATP (Sigma, A7699) was diluted to 700 µM with the 1× MAT2A assay buffer for later use. • e) Preparation and addition of mixed solution of substrate and ATP: A mixed solution was prepared containing the 5× MAT2A assay buffer (3 µL/well), 750 µM L-methionine (Adamas, 01100469) (2.5 µL/well), 700 µM ATP (2.5 µL/well), and double distilled water (2 µL/well). The total amount of the required mixed solution was prepared according to the number of detection wells. Using a BioTek (MultiFlo FX) automated dispenser, the mixed solution was added at 10 µL/well. The resulting mixture was centrifuged at 2500 rpm for 30 s and allowed to react at 25 °C for 150 min. • f) Addition of Biomol Green detection reagent: Using a BioTek (MultiFlo FX) automated dispenser, Biomol Green (Enzo, BML-AK111) was added at 50 µL/well. The plate was centrifuged at 2500 rpm for 30 s and incubated at 25 °C for 20 min. • g) After the reaction was completed, the OD620 values were measured using a Perkin Elmer (Envision 2105) multimode microplate reader.
The inhibition rate was calculated using the following formula: Inhibition rate % = (ODmax −ODsample)/(ODmax −ODmin) × 100% [formula] where: • ODsample represents the OD620 value of the sample well; • ODmin represents the mean OD620 value of the blank control wells containing no enzyme and no test compound; • ODmax represents the mean OD620 value of the negative control wells containing enzyme but no compound. […]

Data set [6] deals with HCT116 MTAP-/- cells. Description: Cellular assay: cell proliferation inhibition (CellTiter-Glo). It is filed as cell-based. The conditions noted are these: Homo sapiens, HCT-116; incubated for 120 h. As to the method: HCT116 MTAP-/- cells (purchased from Horizon Discovery) (a human colorectal cancer cell strain with deletion of MTAP gene) were cultured in a medium containing RPMI 1640 + 10% FBS (fetal bovine serum). On day 0 of the experiment, the viable cell density of the aforementioned cells in the logarithmic growth phase was adjusted to 5000 cells/mL, and then the cells were seeded into a 96-well plate at 100 µL/well, with blank group wells set up in parallel. The seeded cell plate was placed in an incubator at 37 °C with 5% CO2 and incubated overnight.
On day 1 of the experiment, the cell plate incubated overnight was taken out, and the supernatant was discarded. A serum-free RPMI 1640 medium was then added at 80 µL/well, and the plate was placed in an incubator for starvation culture for 4 h. The test compound was dissolved in DMSO (dimethyl sulfoxide) to prepare a 10 mM compound stock solution. After the starvation was completed, the cell plate was taken out, and a medium containing RPMI 1640 + 20% FBS was further added at 80 µL/well. The cell plate was placed on an automated dispenser D300e (Tecan), with the program for compound addition set as follows: the highest concentration of the compound tested was 30 µM, and 3-fold gradient dilution was performed with DMSO to give a total of 10 concentrations; two replicate wells were set for each concentration; the final concentration of DMSO in each well of the 96-well plate was 0.3% (v/v). The pre-prepared 10 mM test compound stock solution was taken and then added by running the aforementioned drug addition program. After the drug addition was completed, the cell plate was placed in an incubator and incubated for 120 h.
On day 6 of the experiment, the cell plate was taken out, and CellTiter-Glo® (purchased from Promega) was added at 50 µL/well. The […] was measured on Envision (PerkinElmer) according to the operation procedures in the instructions. […]
A general note: In ATP-based viability assays light output follows the ATP content of the culture.

Data set [7] in a line: In vivo pharmacokinetic study in ICR mice. The conditions noted are these: mouse, PO @ 10 mg/kg, male ICR mice, plasma; for AUC(0-t): read-out: Area under the curve AUC0-t; for Cmax: read-out: Peak concentration Cmax. As to the method: Male ICR mice (6-10 weeks old, Vital River Laboratory Animal Technology Co., Ltd.) were housed in an SPF animal room at a temperature of 20-25 °C, with a relative humidity of 40%-70%, and under a 12/12-hour light/dark cycle. The animals were given free access to water and food. After at least 5 days of normal feeding, mice with good physical signs as determined by a veterinarian could be included in this experiment. Each mouse was marked with a number on the tail.
The day before the experiment, the mice were fasted overnight, with free access to water. They were fed 4 h after administration. The compound was prepared into a 20 mg/mL stock solution with DMSO. An appropriate volume of the 20 mg/mL stock solution was accurately pipetted into a glass flask, and then an appropriate volume of PEG400 was added. The mixture was mixed well, and then propylene glycol (PG) was added. The ratio of vehicles in the final formulation was DMSO:PEG400:PG (v/v/v) = 5:65:30. This process yielded a test dosing solution of each test compound at a concentration of 1 mg/mL.
The mice were weighed, and then the theoretical administration volume for each mouse was calculated according to the following formula. The actual administered dose for each mouse and the time of blood sample collection should be recorded in detail in the corresponding table. Theoretical administration volume(mL); = ((Dose(mg⋅kg^−1))/(Concentration of test solution(mg⋅mL^−1))) × Animal body weight(kg) [formula]
On the day of the experiment, the test dosing solution of each test compound was intragastrically administered to the mice in each group at a dose of 10 mg/kg. At each time point after administration, about 40 µL of blood was collected from the orbit of each mouse and then placed into an EDTA-K2 anticoagulation tube. The whole blood samples were centrifuged at 1500-1600 g for 10 min. The separated plasma was stored in a freezer at -40 °C to -20 °C for biological sample analysis.
The concentrations of the compounds in the biological samples obtained from the experiment were determined using an LC-MS/MS analysis method. Pharmacokinetic parameters were calculated using a non-compartmental model in Pharsight Phoenix 7.0.

T1 sequence (P31153 whole entry): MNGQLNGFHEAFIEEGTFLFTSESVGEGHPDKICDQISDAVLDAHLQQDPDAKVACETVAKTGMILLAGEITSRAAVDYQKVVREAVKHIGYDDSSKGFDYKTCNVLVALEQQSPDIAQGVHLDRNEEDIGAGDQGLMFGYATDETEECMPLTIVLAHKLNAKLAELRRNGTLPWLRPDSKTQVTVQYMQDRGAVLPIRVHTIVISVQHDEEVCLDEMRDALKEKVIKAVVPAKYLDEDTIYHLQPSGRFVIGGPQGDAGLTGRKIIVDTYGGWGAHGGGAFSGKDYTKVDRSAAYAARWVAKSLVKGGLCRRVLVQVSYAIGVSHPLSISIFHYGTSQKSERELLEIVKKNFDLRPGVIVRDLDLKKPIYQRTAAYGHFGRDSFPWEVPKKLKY

Consider `Cn1cc2cc(-c3nn4ccc(C5CC5)nc4c(-c4ccc(OC(F)F)cc4)c3=O)ccc2n1` [Crystal form L, 2-cyclopropyl-9-[4-(difluoromethoxy)phenyl]-7-(2-methyl-2H-indazol-5-yl)-8H-pyrimido[1,2-b]pyridazin-8-one], for which the Crystal form change entry in data set [1] (0 day), in data set [1] (25 °C/60% RH/17 days), in data set [1] (40 °C/75% RH/17 days), in data set [4] (0 days), in data set [4] (1 month) and in data set [4] (2 months) was “No” each time. Besides, the Crystal form change result in data set [4] (3 months) and in data set [4] (6 months) was “No” throughout. Further, the Purity in data set [1] (0 day) turned out to be 98.60%; in data set [1] (25 °C/60% RH/17 days), 99.04%; in data set [1] (40 °C/75% RH/17 days) it was 99.00%. Also, the “change in crystal form or purity” value in data set [1] (25 °C/60% RH for 17 days) and in data set [1] (40 °C/75% RH for 17 days) was “no change in either crystal form or purity” each time. The “stability in suspension stirring competition” value in data set [2] is given as “stable crystal form”. The “After heating (crystal form)” value in data set [3] is on record as “Crystal form A”. For the same molecule, the Water content entry in data set [4] (0 days), in data set [4] (1 month) and in data set [4] (6 months) was “Undetectable” throughout. For the same molecule, the “Related substance Total impurities” value in data set [4] (1 month) turned out to be 0.22%; in data set [4] (2 months), 0.26%; in data set [4] (3 months) it was 0.26%; in data set [4] (6 months), 0.27%.

As usually defined, the IC50 is the concentration that inhibits the measured activity by half. A low value points to inhibition by little substance. `O=c1c(-c2ccc(OC(F)F)cc2)nn2ccc(C3CC3)nc2c1-c1ccc(OC(F)F)cc1` [Example 1, 2-Cyclopropyl-7,9-bis[4-(difluoromethoxy)phenyl]-8H-pyrimido[1,2-b]pyridazin-8-one] gave an IC50 in data set [5] of 6.44 nM. In data set [6], this molecule came in with an IC50 of 260 nM. For the same molecule, in data set [7], the AUC(0-t) came out at 45500 ng·h/mL and the Cmax was determined as 2070 ng/mL.

`O=c1c(-c2ccc3c(c2)OCO3)nn2ccc(C3CC3)nc2c1-c1ccc2c(c1)OCO2` [Example 2, 7,9-Bis(benzo[d][1,3]dioxol-5-yl)-2-cyclopropyl-8H-pyrimido[1,2-b]pyridazin-8-one]: the half-inhibitory concentration (IC50) came out at 11.4 nM in data set [5] and 119 nM in data set [6]. In data set [7], the AUC(0-t) came to 8730 ng·h/mL. For the same molecule, the Cmax in data set [7] stood at 1370 ng/mL.

Take `Cn1cc2cc(-c3nn4ccc(C5CC5)nc4c(-c4ccc(OC(F)F)cc4)c3=O)ccc2n1` [Example 3, 2-Cyclopropyl-9-[4-(difluoromethoxy)phenyl]-7-(2-methyl-2H-indazol-5-yl)-8H-pyrimido[1,2-b]pyridazin-8-one]: the figures for the IC50 in data set [5] and in data set [6] were 10.7 nM and 14.3 nM, respectively. Further, the AUC(0-t) in data set [7] stood at 78300 ng·h/mL. Also, the Cmax in data set [7] came out at 4210 ng/mL.

The record behind these values is EP4729518A1, “CRYSTAL FORM OF METHIONINE ADENOSYLTRANSFERASE 2A HETEROCYCLIC INHIBITOR, PREPARATION METHOD THEREFOR, AND USE THEREOF” (Nanjing Chia Tai Tianqing Pharmaceutical Co., Ltd., priority 2023, dated 2024).
